Data: article doi:10.1101/2022.02.04.479214v1 (biorxiv, 2022)

Experiments:
Experiment in all cases: CYP activity inhibition in microsomes
Format in all cases: biochemical
Details in all cases: microsomes with NADPH; direct inhibition
CYP1A2 = target: T1, CYP1A2 (Homo sapiens, UniProt P05177)
T1 sequence (P05177 2-516): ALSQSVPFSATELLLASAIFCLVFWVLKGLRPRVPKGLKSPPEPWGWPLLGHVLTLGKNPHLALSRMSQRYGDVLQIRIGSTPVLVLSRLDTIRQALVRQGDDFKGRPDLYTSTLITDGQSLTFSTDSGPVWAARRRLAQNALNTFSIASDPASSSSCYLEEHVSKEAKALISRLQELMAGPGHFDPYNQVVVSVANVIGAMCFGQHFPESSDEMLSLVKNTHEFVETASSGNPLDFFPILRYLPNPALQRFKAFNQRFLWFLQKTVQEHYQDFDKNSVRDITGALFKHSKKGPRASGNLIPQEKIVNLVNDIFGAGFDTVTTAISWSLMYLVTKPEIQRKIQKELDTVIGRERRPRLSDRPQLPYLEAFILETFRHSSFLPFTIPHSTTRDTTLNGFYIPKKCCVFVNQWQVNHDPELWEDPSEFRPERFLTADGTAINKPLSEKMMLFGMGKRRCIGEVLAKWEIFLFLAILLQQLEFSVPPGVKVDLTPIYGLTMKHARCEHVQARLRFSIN

CYP3A4 = CYP3A4 (Homo sapiens, UniProt P08684)
CYP2D6 = CYP2D6 (Homo sapiens, UniProt P10635)
CYP2C19 = CYP2C19 (Homo sapiens, UniProt P33261)
CYP2C9 = CYP2C9 (Homo sapiens, UniProt P11712)

Measured: IC50

Sequence of CYP3A4 (P08684 2-503): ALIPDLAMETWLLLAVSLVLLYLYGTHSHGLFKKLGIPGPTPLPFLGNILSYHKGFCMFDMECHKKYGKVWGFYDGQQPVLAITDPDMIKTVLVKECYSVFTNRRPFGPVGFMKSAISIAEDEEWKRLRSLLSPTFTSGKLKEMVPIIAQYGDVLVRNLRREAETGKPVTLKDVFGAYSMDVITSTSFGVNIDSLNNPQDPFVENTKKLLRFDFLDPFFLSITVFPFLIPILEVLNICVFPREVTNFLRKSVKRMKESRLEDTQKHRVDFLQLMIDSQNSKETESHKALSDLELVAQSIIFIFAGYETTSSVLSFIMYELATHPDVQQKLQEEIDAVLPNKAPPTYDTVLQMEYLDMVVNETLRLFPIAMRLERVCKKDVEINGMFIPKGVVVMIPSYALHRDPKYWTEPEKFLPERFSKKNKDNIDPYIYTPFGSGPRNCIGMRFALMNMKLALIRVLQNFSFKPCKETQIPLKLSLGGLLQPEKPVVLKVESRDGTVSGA
Sequence of CYP2C19 (P33261 whole entry): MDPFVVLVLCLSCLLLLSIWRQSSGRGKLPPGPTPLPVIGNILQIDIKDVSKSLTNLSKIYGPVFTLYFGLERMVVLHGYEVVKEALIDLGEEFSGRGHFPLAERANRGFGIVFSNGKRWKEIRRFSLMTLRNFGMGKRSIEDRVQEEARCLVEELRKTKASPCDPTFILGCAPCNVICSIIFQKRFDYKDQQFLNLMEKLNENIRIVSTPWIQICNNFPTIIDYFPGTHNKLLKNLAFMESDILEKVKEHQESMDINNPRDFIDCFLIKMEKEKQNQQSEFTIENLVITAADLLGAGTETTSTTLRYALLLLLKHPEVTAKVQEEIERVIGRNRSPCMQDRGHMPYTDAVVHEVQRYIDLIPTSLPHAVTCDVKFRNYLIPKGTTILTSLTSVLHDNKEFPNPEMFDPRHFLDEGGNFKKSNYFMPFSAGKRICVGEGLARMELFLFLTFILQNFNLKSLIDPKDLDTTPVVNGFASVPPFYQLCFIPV
Sequence of CYP2C9 (P11712 whole entry): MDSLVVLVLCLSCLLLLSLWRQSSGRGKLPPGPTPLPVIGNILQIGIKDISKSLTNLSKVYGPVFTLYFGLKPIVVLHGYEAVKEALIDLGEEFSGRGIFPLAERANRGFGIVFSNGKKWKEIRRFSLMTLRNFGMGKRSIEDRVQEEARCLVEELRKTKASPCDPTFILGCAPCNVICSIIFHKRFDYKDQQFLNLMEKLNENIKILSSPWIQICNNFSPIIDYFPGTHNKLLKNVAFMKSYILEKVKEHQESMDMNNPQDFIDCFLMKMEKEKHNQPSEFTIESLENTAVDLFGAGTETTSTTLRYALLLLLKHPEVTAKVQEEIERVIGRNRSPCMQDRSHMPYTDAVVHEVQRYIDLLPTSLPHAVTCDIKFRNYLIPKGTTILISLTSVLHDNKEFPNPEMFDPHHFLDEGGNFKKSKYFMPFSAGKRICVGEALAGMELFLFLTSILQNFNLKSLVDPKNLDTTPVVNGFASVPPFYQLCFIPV
Sequence of CYP2D6 (P10635 whole entry): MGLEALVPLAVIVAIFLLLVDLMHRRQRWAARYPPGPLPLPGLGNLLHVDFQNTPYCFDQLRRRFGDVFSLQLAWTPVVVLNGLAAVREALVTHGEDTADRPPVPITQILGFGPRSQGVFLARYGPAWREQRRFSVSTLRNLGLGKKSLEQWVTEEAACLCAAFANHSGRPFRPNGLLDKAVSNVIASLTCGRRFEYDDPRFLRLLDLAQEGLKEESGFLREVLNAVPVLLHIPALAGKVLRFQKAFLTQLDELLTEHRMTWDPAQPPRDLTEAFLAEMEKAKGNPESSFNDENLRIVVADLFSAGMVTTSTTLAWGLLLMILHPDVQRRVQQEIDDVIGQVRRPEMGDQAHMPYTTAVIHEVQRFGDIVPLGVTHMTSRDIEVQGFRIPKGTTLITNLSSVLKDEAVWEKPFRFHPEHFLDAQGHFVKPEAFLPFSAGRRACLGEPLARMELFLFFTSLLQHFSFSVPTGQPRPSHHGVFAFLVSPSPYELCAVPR

Cc1cccc(OC2CCN(Cc3cc(=O)[nH]c(=O)[nH]3)CC2)c1C [GSK2556286]
> 25 µM: all assays above
